Experimental data taken from patent publication US10155757B2, “Crystalline form of a JAK3 kinase inhibitor” (VECTURA LIMITED, priority 2015, dated 2018).

Test: Aerodynamic particle size distribution (APSD) by Next Generation Impactor (NGI), fine particle mass and its stability
Assay type: physicochemical
Conditions: 1000 μg dose load in 20 mg formulation, NGI 60 Lmin^−1, F1 device
Procedure: The aerodynamic particle size distribution (APSD) of the formulations was evaluated with the Next Generation Impactor (NGI) tested at a flow rate of 80 Lmin^−1 in the GyroHaler® device (Compound 1—Gentisic Acid) and 60 Lmin^−1 in the F1 device (Compound 1, Compound 1—Maleic Acid and Compound 1—Adipic Acid). One dose was collected for each NGI measurement. Compound 1 deposition on the NGI components was measured by a gradient high performance liquid Chromatography (HPLC) method with UV detection.
The co-crystals with adipic acid and maleic acid were tested in a Vectura unit dose device as disclosed in WO2010/086285, and the gentisic acid co-crystal was tested in a GyroHaler® device.

Cn1c(=O)n([C@H]2CCCN(C(=O)CC#N)C2)c2nc(-c3cnn4ccccc34)ccc21 [Compound 1, (S)-3-(3-(1-methyl-2-oxo-5-(pyrazolo[1,5-a]pyridine-3-yl)-1H-imidazo[4,5-b]pyridine-3(2H)-yl)piperidin-1-yl)-3-oxopropanenitrile]
Fine particle Mass (μg < 5 μm) (T = 0 w): 418.2 µg
Fine particle Mass (μg < 5 μm) (T = 4 w): 450.7 µg
Fine particle Mass (μg < 5 μm) (T = 12 w): 415.3 µg
